From PubChem BioAssay AID248 (DTP/NCI, 2004)
Inconclusive results and toxic doses are left out. Cut-off read from the data, not from the text of the source: active = T/C of 150% or more; inactive = T/C below 125%.

Tested on: L1210 leukemia ip in BDF1 mice, survival T/C
Test: NCI In Vivo Anticancer Drug Screen. Data for tumor model L1210 Leukemia (intraperitoneal) in B6D2F1 (BDF1) mice
Details: endpoint: mean survival time, higher = longer survival
Summary of the method: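 Tumor cells were implanted, animals were treated, and survival was followed. The result divides the treated measurement by the vehicle-control measurement.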

[1] = dose: 100.0 mg/kg/injection, schedule: Q01DX001 (ip), vehicle: saline
[2] = dose: 400.0 mg/kg/injection, schedule: Q01DX001 (ip), vehicle: saline
[3] = dose: 100.0 mg/kg/injection, schedule: Q04DX002 (ip), vehicle: Klucel (hydroxypropylcellulose) (HPC)
[4] = dose: 200.0 mg/kg/injection, schedule: Q04DX002 (ip), vehicle: Klucel (hydroxypropylcellulose) (HPC)
[5] = dose: 400.0 mg/kg/injection, schedule: Q04DX002 (ip), vehicle: Klucel (hydroxypropylcellulose) (HPC)
[6] = dose: 200.0 mg/kg/injection, schedule: Q01DX001 (ip), vehicle: saline
[7] = dose: 200.0 mg/kg/injection, schedule: Q04DX003 (ip), vehicle: saline
[8] = dose: 400.0 mg/kg/injection, schedule: Q04DX003 (ip), vehicle: saline

Measured: T/C

CCCCCC(/C=N/NC(=O)c1cccc2ccccc12)=C\c1ccccc1
inactive: [1] 94 % of control | [2] 97 % of control

COc1ccc([N+](=O)[O-])cc1NC(=O)N(C1CCCCC1)C1CCCCC1
inactive: dose: 50.0 mg/kg/injection, schedule: Q01DX009 (ip), vehicle: Klucel (hydroxypropylcellulose) (HPC) 96 % of control | dose: 100.0 mg/kg/injection, schedule: Q01DX009 (ip), vehicle: Klucel (hydroxypropylcellulose) (HPC) 93 % of control | dose: 200.0 mg/kg/injection, schedule: Q01DX009 (ip), vehicle: Klucel (hydroxypropylcellulose) (HPC) 96 % of control

CN(C)C=Nc1ncnc2nc[nH]c12
inactive: dose: 100.0 mg/kg/injection, schedule: Q04DX002 (ip), vehicle: saline with Tween-80 102 % of control | dose: 200.0 mg/kg/injection, schedule: Q04DX002 (ip), vehicle: saline with Tween-80 102 % of control | dose: 400.0 mg/kg/injection, schedule: Q04DX002 (ip), vehicle: saline with Tween-80 109 % of control

Cc1cccc2ccccc12
inactive: [3] 107 % of control | [4] 107 % of control | [5] 107 % of control

NCCCCC(N)C(=O)NC1C(CO)OC(n2cnc3c(N)ncnc32)C1O (centres undefined)
inactive: [1] 101 % of control | [6] 105 % of control | [2] 101 % of control

CC1=NN(c2ccc(S(=O)(=O)O)cc2)C(=O)/C1=C/c1ccc(Cl)cc1
inactive: dose: 100.0 mg/kg/injection, schedule: Q01DX009 (ip), vehicle: saline sonified 105 % of control | dose: 200.0 mg/kg/injection, schedule: Q01DX009 (ip), vehicle: saline sonified 100 % of control | [7] 102 % of control | dose: 400.0 mg/kg/injection, schedule: Q01DX009 (ip), vehicle: saline sonified 104 % of control | [8] 98 % of control

CC(=O)OC1CC2(O)C3CCC4CC(O)CCC4(C)C3CCC2(C)C1c1ccc(=O)oc1 (centres undefined)
inactive: dose: 100.0 mg/kg/injection, schedule: Q01DX001 (sc), vehicle: steriod suspending solution 107 % of control | dose: 200.0 mg/kg/injection, schedule: Q01DX001 (sc), vehicle: steriod suspending solution 101 % of control | dose: 400.0 mg/kg/injection, schedule: Q01DX001 (sc), vehicle: steriod suspending solution 107 % of control

CCCCNC(=O)c1ccc(C(=O)c2ccc(C(=O)NCCCC)c(C(=O)O)c2)cc1C(=O)O
inactive: [3] 90 % of control | [4] 87 % of control | [5] 87 % of control

S=C([S][Sn]([c]1ccccc1)([c]1ccccc1)[c]1ccccc1)N1CCCCC1
inactive: dose: 100.0 mg/kg/injection, schedule: Q04DX003 (ip), vehicle: Klucel (hydroxypropylcellulose) (HPC) 100 % of control | dose: 200.0 mg/kg/injection, schedule: Q04DX003 (ip), vehicle: Klucel (hydroxypropylcellulose) (HPC) 94 % of control | dose: 400.0 mg/kg/injection, schedule: Q04DX003 (ip), vehicle: Klucel (hydroxypropylcellulose) (HPC) 94 % of control

O=C(O)CNc1ccc(S(=O)(=O)c2ccc(NCC(=O)O)cc2)cc1
inactive: [1] 102 % of control | [6] 102 % of control | [2] 98 % of control

CCOC(=O)C1=C(C)NC(C)=C(C(=O)OCC)C1
inactive: dose: 50.0 mg/kg/injection, schedule: Q01DX009 (ip), vehicle: saline 101 % of control | dose: 100.0 mg/kg/injection, schedule: Q01DX009 (ip), vehicle: saline 96 % of control | dose: 100.0 mg/kg/injection, schedule: Q04DX003 (ip), vehicle: saline 104 % of control | dose: 200.0 mg/kg/injection, schedule: Q01DX009 (ip), vehicle: saline 96 % of control | [7] 108 % of control | dose: 400.0 mg/kg/injection, schedule: Q01DX009 (ip), vehicle: saline 101 % of control | [8] 95 % of control

CCOC(=O)C1C(=O)N(O)c2cnccc21 (centres undefined)
inactive: [1] 107 % of control | [6] 107 % of control | [2] 88 % of control

ClC1(Cl)Cc2ccccc21
inactive: dose: 100.0 mg/kg/injection, schedule: Q01DX009 (ip), vehicle: saline with Tween-80 97 % of control | dose: 177.0 mg/kg/injection, schedule: Q04DX003 (ip), vehicle: saline with Tween-80 98 % of control | dose: 200.0 mg/kg/injection, schedule: Q01DX009 (ip), vehicle: saline with Tween-80 96 % of control | dose: 200.0 mg/kg/injection, schedule: Q04DX003 (ip), vehicle: saline with Tween-80 101 % of control | dose: 266.0 mg/kg/injection, schedule: Q04DX003 (ip), vehicle: saline with Tween-80 98 % of control | dose: 400.0 mg/kg/injection, schedule: Q01DX009 (ip), vehicle: saline with Tween-80 96 % of control | dose: 400.0 mg/kg/injection, schedule: Q04DX003 (ip), vehicle: saline with Tween-80 98 % of control | dose: 600.0 mg/kg/injection, schedule: Q04DX003 (ip), vehicle: saline with Tween-80 110 % of control
